Source: US6140335A, “Use of mizolastine for treating inflammatory diseases associated with 5-lipoxygenase” (Sanofi-Synthelabo, priority 1997, dated 2000)
pIC50: −log10 of the molar value.

Assays:
[1] = system: rat rectocolitis induced by trinitrobenzenesulphonic acid (TNBS); assay: In vivo activity in a model of inflammation of experimental colitis in rats (TNBS); conditions: 3 mg/kg orally one hour before and one day after TNBS, after 3 days, significant
Method: Mizolastine was studied in a model of rat rectocolitis induced by trinitrobenzenesulphonic acid (TNBS), according to the method described by Morris et al. (Gastroenterology, 96, 795-803, 1989).
The mizolastine is given orally (3 mg/kg) one hour before and one day after the instillation of TNBS (40 mg/kg in 50% ethanol) into the distal part of the colon. After 3 days, measurement of the macroscopic index of the damage, of the oedema/hypertrophy (weight of tissues) and of the myeloperoxidase activity, as a measure of the infiltration of the neutrophils, is carried out. Mizolastine imparts a significant reduction in the damage, in the oedema/hypertrophy (weight of tissues) and in the myeloperoxidase activity of 67%, 57% and 66% respectively at 3 mg/kg.

[2] = system: inflammatory oedema of rat limbs induced by the injection of AA; assay: In vivo activity in a model of inflammation of rat limbs (oedema by injection of AA); conditions: 0.3 mg/kg orally 2 hours before AA injection; after 4 hours; plethysmography
Method: a) inflammation by injection of AA
Inflammatory oedema of rat limbs induced by the injection of AA is produced and evaluated according to the method of Di Martino et al. (Agents and actions, 21, 303-305, 1987) except that the AA concentration used is 0.3% (v/v).
The mizolastine is given orally 2 hours before the injection of AA. An AA solution, prepared at the time of use in a buffer solution (0.1 ml; 0.2 M carbonate; pH=11.2), is injected into the subplantar part of a rat's right hind limb.
The volume of the inflammatory reaction is measured by plethysmography after 1, 2, 3 and 4 hours.

[3] = biological target: T1, 5-LO obtained from a preparation of rat leukaemic basophil cells (RBL-1) (Rattus norvegicus, UniProt P12527); assay: Inhibition of 5-LO in Rats (RBL-1 preparation); type: biochemical; conditions: rat 5-LO (RBL-1); linoleic acid; 5 min preincubation, 8 min at room temperature; absorption at 234 nm; read-out: inhibitory concentration (IC50)
T1 construct: 5-LO obtained from a preparation of rat leukaemic basophil cells (RBL-1); endogenous in cells; host or cells: RBL-1 (rat leukaemic basophil cells)
T1 sequence (P12527 1-673): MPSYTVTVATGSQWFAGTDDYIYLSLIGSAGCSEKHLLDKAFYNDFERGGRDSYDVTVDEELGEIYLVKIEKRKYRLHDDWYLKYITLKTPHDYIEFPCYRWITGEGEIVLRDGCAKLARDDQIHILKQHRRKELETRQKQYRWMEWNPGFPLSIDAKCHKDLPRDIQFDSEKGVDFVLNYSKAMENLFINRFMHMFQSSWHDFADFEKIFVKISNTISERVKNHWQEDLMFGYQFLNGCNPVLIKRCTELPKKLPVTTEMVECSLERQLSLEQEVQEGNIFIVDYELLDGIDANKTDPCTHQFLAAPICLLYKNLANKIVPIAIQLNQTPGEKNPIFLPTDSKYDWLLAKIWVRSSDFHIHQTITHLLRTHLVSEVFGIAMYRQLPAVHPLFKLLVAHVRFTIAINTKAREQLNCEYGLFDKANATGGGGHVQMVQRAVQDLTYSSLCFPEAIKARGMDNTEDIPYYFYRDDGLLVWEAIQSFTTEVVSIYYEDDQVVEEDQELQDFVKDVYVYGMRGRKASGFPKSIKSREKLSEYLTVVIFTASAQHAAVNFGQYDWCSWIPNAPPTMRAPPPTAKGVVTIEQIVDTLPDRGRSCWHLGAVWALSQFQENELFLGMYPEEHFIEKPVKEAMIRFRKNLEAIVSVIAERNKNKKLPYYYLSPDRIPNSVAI
Method: The tests were carried out according to the procedure described by R. W. Egan and P. H. Gale in J. Biol. Chem., 260, 1154-1159, 1985, with 5-LO obtained from a preparation of rat leukaemic basophil cells (RBL-1). Mizolastine is incubated with the enzyme for 5 minutes at room temperature and the reaction is initiated by addition of linoleic acid. After incubating for 8 minutes at room temperature, the reaction is stopped by addition of sodium hydroxide and the absorption is read at 234 nm in order to determine the level of 5-HETE.

[4] = biological target: T2, 5-LO isolated from commercial HL60 cells (Homo sapiens, UniProt P09917); assay: Inhibition of 5-LO in Man (HL60 5-LO); type: biochemical; conditions: 5-LO from HL60 cells; arachidonic acid 0.4 μM; 10 min at room temperature; 5-HETE by RIA; read-out: inhibitory concentration (IC50)
T2 construct: 5-LO isolated from commercial HL60 cells; endogenous in cells; host or cells: HL60
T2 sequence (P09917 1-674): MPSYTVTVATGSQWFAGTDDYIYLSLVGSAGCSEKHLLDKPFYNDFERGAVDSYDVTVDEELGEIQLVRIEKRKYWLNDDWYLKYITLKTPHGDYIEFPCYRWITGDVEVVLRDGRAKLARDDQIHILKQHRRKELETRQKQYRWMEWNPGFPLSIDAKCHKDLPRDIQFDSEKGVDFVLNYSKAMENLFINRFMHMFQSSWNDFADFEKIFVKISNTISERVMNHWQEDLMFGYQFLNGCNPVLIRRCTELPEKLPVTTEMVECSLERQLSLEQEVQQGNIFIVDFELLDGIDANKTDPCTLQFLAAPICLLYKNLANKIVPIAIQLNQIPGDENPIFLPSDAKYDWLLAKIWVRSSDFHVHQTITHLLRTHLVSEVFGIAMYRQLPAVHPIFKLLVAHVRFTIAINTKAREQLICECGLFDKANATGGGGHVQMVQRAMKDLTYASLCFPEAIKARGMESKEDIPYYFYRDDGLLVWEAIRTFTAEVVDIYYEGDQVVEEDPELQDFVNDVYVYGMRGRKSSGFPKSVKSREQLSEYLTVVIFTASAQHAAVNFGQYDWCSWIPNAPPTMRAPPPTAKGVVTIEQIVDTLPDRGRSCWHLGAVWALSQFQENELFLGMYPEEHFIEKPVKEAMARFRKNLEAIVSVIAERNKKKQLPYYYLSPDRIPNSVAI
Method: Mizolastine was tested on 5-LO isolated from commercial HL60 cells. The mizolastine is incubated for 10 minutes at room temperature in the presence of arachidonic acid (0.4 μM) and 5-LO. The experiment is carried out simultaneously in the presence of nordihydrogualaretic acid as reference product. The amount of 5-HETE formed is determined by RIA (Coffrey et al., J. Biol. Chem., 267-270, 1992).

SMILES: CN(c1nccc(O)n1)C1CCN(c2nc3ccccc3n2Cc2ccc(F)cc2)CC1 [mizolastine, 2-[[1-[1-[(4-fluorophenyl)methyl]-1H-benzimidazol-2-yl]-4-piperidyl]methylamino]-4-pyrimidinol]
- reduction in the myeloperoxidase activity ([1]; infiltration of neutrophils): 66%
- reduction in the damage (macroscopic index) [1]: 67%
- reduction in the oedema/hypertrophy (weight of tissues) [1]: 57%
- inhibition, relative to the control, of the inflammation induced [2]: 55%
- pIC50 [3]: 5.34
- pIC50 [4]: 4.80
